Reference: US6355799B1, “Substituted benzene compounds, process for their preparation, and herbicidal and defoliant compositions containing them” (ISK Americas Incorporated, priority 1997, dated 2002)

How the values were obtained:
Type in all cases: in vivo
[1] = test system: barnyardgrass (Echinochloa crus-galli, ECHCG); experiment: Pre-emerge test, greenhouse herbicide activity screening; conditions: pre-emerge, phytotoxicity rating 0-100 at 14 days after application
In short: (§1)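 Compounds in acetone were track-sprayed at 187 l/ha, 15–1000 g ai/ha, onto sandy loam pots. Pre-emerge seeds were sown one day before spraying, with surface watering afterwards. Post-emerge plants were at the 2–3 leaf stage and sprayed with 0.25% v/v non-ionic surfactant. Injury was rated 0–100 at 14 days.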

[2] = test system: lambsquarters (Chenopodium album, CHEAL); experiment: as above; conditions: pre-emerge, phytotoxicity rating 0-100 at 14 days after application
In short: as §1

[3] = test system: large crabgrass (Digitaria sanguinalis, DIGSA); experiment: as above; conditions: pre-emerge, phytotoxicity rating 0-100 at 14 days after application
In short: as §1

[4] = test system: sicklepod (Cassia obtusifolia, CASOB); experiment: as above; conditions: pre-emerge, phytotoxicity rating 0-100 at 14 days after application
In short: as §1

[5] = test system: ivyleaf morningglory (Ipomoea hederacea, IPOHE); experiment: as above; conditions: pre-emerge, phytotoxicity rating 0-100 at 14 days after application
In short: as §1

[6] = test system: velvetleaf (Abutilon theophrasti, ABUTH); experiment: as above; conditions: pre-emerge, phytotoxicity rating 0-100 at 14 days after application
In short: as §1

[7] = test system: johnsongrass (Sorghum halepense, SORHA); experiment: as above; conditions: pre-emerge, phytotoxicity rating 0-100 at 14 days after application
In short: as §1

[8] = test system: green foxtail (Setaria viridis, SETVI); experiment: as above; conditions: pre-emerge, phytotoxicity rating 0-100 at 14 days after application
In short: as §1

[9] = test system: upland rice (Oryza sp., var. Tebonnet, RICE); experiment: Pre-emerge test, crop safety; conditions: crop damage, pre-emerge, phytotoxicity rating 0-100 at 14 days after application
In short: (§2)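 Fourteen days after spraying, crop and weed injury was graded visually from 0, no effect, to 100, every plant dead. Test substances were dissolved in acetone and applied at 15–1000 g ai/ha with a flat-fan nozzle. Application was either pre-emergence, one day after sowing, or post-emergence at the 2–3 leaf stage.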

[10] = test system: field corn (Zea mays L., var. Dekalb 535, CORN); experiment: Pre-emerge test, crop safety; conditions: crop damage, pre-emerge, phytotoxicity rating 0-100 at 14 days after application
In short: as §2

[11] = test system: lambsquarters (Chenopodium album, CHEAL); experiment: Post-emerge test, greenhouse herbicide activity screening; conditions: post-emerge, phytotoxicity rating 0-100 at 14 days after application
In short: (§3)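 Compounds in acetone were track-sprayed at 15–1000 g ai/ha: pre-emergence onto soil sown the previous day, then top-watered to incorporate and later bottom-watered; post-emergence onto 2–3 leaf plants with 0.25% v/v surfactant, bottom-watered only. Ratings on a 0–100 phytotoxicity scale were taken at day 14.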

[12] = test system: large crabgrass (Digitaria sanguinalis, DIGSA); experiment: as above; conditions: post-emerge, phytotoxicity rating 0-100 at 14 days after application
In short: as §3

[13] = test system: sicklepod (Cassia obtusifolia, CASOB); experiment: as above; conditions: post-emerge, phytotoxicity rating 0-100 at 14 days after application
In short: as §3

[14] = test system: ivyleaf morningglory (Ipomoea hederacea, IPOHE); experiment: as above; conditions: post-emerge, phytotoxicity rating 0-100 at 14 days after application
In short: as §3

[15] = test system: velvetleaf (Abutilon theophrasti, ABUTH); experiment: as above; conditions: post-emerge, phytotoxicity rating 0-100 at 14 days after application
In short: as §3

[16] = test system: johnsongrass (Sorghum halepense, SORHA); experiment: as above; conditions: post-emerge, phytotoxicity rating 0-100 at 14 days after application
In short: as §3

[17] = test system: redroot pigweed (Amaranthus retroflexus, AMARE); experiment: as above; conditions: post-emerge, phytotoxicity rating 0-100 at 14 days after application
In short: as §3

[18] = test system: green foxtail (Setaria viridis, SETVI); experiment: as above; conditions: post-emerge, phytotoxicity rating 0-100 at 14 days after application
In short: as §3

[19] = test system: redroot pigweed (Amaranthus retroflexus, AMARE); experiment: Pre-emerge test, greenhouse herbicide activity screening; conditions: pre-emerge, phytotoxicity rating 0-100 at 14 days after application
In short: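 Herbicidal damage is scored 0 (none) to 100 (complete plant death) two weeks after a simulated field spray. Rates span 15–1000 g ai/ha, delivered in acetone at 187 l/ha. For post-emergence treatments, plants have 2–3 leaves and the spray carries 0.25% v/v non-ionic surfactant.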

[20] = test system: upland rice (Oryza sp., var. Tebonnet, RICE); experiment: Post-emerge test, crop safety; conditions: post-emerge, crop damage rating 0-100 at 14 days after application
In short: as §1

[21] = test system: field corn (Zea mays L., var. Dekalb 535, CORN); experiment: Post-emerge test, crop safety; conditions: post-emerge, crop damage rating 0-100 at 14 days after application
In short: as §1

COc1c(Cl)cc(F)c(N2C(=O)C3=C(CCCC3)C2=O)c1NC(=O)C=Cc1ccccc1 [8-31]
Pre-emerge Herbicidal Activity ECHCG ([1]; rate 63 g ai/ha): 0 | Pre-emerge Herbicidal Activity ECHCG ([1]; rate 250 g ai/ha): 0 | Pre-emerge Herbicidal Activity CHEAL ([2]; rate 63 g ai/ha): 100 | Pre-emerge Herbicidal Activity CHEAL ([2]; rate 250 g ai/ha): 100 | Pre-emerge Herbicidal Activity DIGSA ([3]; rate 63 g ai/ha): 0 | Pre-emerge Herbicidal Activity DIGSA ([3]; rate 250 g ai/ha): 10 | Pre-emerge Herbicidal Activity CASOB ([4]; rate 63 g ai/ha): 0 | Pre-emerge Herbicidal Activity CASOB ([4]; rate 250 g ai/ha): 20 | Pre-emerge Herbicidal Activity IPOHE ([5]; rate 63 g ai/ha): 0 | Pre-emerge Herbicidal Activity IPOHE ([5]; rate 250 g ai/ha): 30 | Pre-emerge Herbicidal Activity ABUTH ([6]; rate 63 g ai/ha): 60 | Pre-emerge Herbicidal Activity ABUTH ([6]; rate 250 g ai/ha): 95 | Pre-emerge Herbicidal Activity SORHA ([7]; rate 63 g ai/ha): 0 | Pre-emerge Herbicidal Activity SORHA ([7]; rate 250 g ai/ha): 10 | Pre-emerge Herbicidal Activity SETVI ([8]; rate 63 g ai/ha): 10 | Pre-emerge Herbicidal Activity SETVI ([8]; rate 250 g ai/ha): 10 | Pre-emerge Herbicidal Activity RICE ([9]; rate 63 g ai/ha): 0 | Pre-emerge Herbicidal Activity RICE ([9]; rate 250 g ai/ha): 30 | Pre-emerge Herbicidal Activity CORN ([10]; rate 63 g ai/ha): 0 | Pre-emerge Herbicidal Activity CORN ([10]; rate 250 g ai/ha): 10 | Post-emerge Herbicidal Activity CHEAL ([11]; 63 g ai/ha): 100 | Post-emerge Herbicidal Activity CHEAL ([11]; 250 g ai/ha): 100 | Post-emerge Herbicidal Activity DIGSA ([12]; 63 g ai/ha): 10 | Post-emerge Herbicidal Activity DIGSA ([12]; 250 g ai/ha): 30 | Post-emerge Herbicidal Activity CASOB ([13]; 63 g ai/ha): 60 | Post-emerge Herbicidal Activity CASOB ([13]; 250 g ai/ha): 80 | Post-emerge Herbicidal Activity IPOHE ([14]; 63 g ai/ha): 100 | Post-emerge Herbicidal Activity IPOHE ([14]; 250 g ai/ha): 100 | Post-emerge Herbicidal Activity ABUTH ([15]; 63 g ai/ha): 100 | Post-emerge Herbicidal Activity ABUTH ([15]; 250 g ai/ha): 100 | Post-emerge Herbicidal Activity SORHA ([16]; 63 g ai/ha): 10 | Post-emerge Herbicidal Activity SORHA ([16]; 250 g ai/ha): 30 | Post-emerge Herbicidal Activity AMARE ([17]; 63 g ai/ha): 100 | Post-emerge Herbicidal Activity AMARE ([17]; 250 g ai/ha): 100 | Post-emerge Herbicidal Activity SETVI ([18]; 63 g ai/ha): 20 | Post-emerge Herbicidal Activity SETVI ([18]; 250 g ai/ha): 20 | Pre-emerge Herbicidal Activity AMARE ([19]; rate 63 g ai/ha): 90 | Pre-emerge Herbicidal Activity AMARE ([19]; rate 250 g ai/ha): 100 | Post-emerge Herbicidal Activity RICE ([20]; 63 g ai/ha): 45 | Post-emerge Herbicidal Activity RICE ([20]; 250 g ai/ha): 30 | Post-emerge Herbicidal Activity CORN ([21]; 63 g ai/ha): 10 | Post-emerge Herbicidal Activity CORN ([21]; 250 g ai/ha): 10
